Experimental data taken from US20230348369A1 (Cytokinetics, Inc., priority 2020, published 2023).
Where two headings read alike, the source gives them in different places.

Key:
[1] = target: human NAMPT (Homo sapiens, UniProt P43490); assay: Human recombinant enzyme assay (NMN fluorescence biochemical assay, activation of NAMPT)
Procedure, shortened: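 Activation of recombinant human NAMPT (6 nM) with 2.5 mM ATP, 20 μM PRPP and 150 μM nicotinamide in 50 mM HEPES pH 7.2, 1 mM DTT, 1 mM CHAPS, 50 mM NaCl, 100 mM MgCl2; 60 min, ambient temperature. NMN formed was derivatized with acetophenone/KOH/formic acid, fluorescence read at 355/460 nm after 40 min.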

[2] = target: T1, endogenous NAMPT (Homo sapiens, UniProt P43490); assay: Cellular NAD+ modulation assay in neuroblastoma SH-SY5Y cells; format: cell-based
T1 construct: stimulate the endogenous NAMPT in a native cellular environment; endogenous in cells; host or cells: SH-SY5Y neuroblastoma cells
T1 sequence (P43490 whole entry): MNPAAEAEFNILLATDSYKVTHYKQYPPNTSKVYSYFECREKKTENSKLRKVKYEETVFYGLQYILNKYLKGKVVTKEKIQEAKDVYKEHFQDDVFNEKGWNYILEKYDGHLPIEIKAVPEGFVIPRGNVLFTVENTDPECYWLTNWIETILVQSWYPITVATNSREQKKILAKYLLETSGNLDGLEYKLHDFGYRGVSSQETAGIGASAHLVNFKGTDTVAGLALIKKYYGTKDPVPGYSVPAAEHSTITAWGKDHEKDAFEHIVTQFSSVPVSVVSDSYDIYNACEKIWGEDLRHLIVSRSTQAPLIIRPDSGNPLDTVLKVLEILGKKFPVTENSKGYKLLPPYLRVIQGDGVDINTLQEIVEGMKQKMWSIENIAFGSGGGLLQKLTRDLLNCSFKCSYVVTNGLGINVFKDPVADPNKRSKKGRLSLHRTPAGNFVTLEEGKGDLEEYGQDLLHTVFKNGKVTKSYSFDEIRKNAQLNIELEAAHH
Method: The compounds described herein were also assayed for their ability to stimulate the endogenous NAMPT in a native cellular environment in the cellular NAD+ modulation assay, which measures the ability of the compound to modulate cellular NAD levels. Increased levels of NAD are expected by compounds that permeate the cells and activate the catalytic activity of the endogenous NAMPT.
Neuroblastoma SH-SY5Y cells were grown in 1:1 mixture of Eagle's Minimum Essential Medium and F12 Medium, along with 10% fetal bovine serum, in a humidified incubator with an atmosphere of 95% air and 5% CO2 at 37° C. The assays were initiated by plating 20 μL of SH-SY5Y cells in culture medium with 0.1% fetal bovine serum, at a density of 5000 cells per well to a 384-well Corning™ BioCoat™ Poly-D-Lysine Multiwell Plates. The plates were incubated in the 37° C. incubators for a period of 5 hours. Compounds in DMSO were added to the plates in a volume of 120 nL using the Labcyte Echo Liquid Handlers. […] The plates are then incubated for 40 hours. 30 μL of a readout-solution containing 0.2 U/mL Diaphorase enzyme, 40 uM resazurin, 10 uM FMN, 0.8 U/mL Alcohol dehydrogenase, 3% ethanol, 0.4 mg/mL bovine serum albumin, 0.2% Triton X-100 in 100 mM Tris-HCl, 30 mM EDTA, pH 8.4. The plates were read for fluorescence (Excitation/Emission=540 nm/590 nm) using an EnVision plate reader after 60 mins of incubation at ambient temperature.

[3] = Table A, human recombinant NAMPT, NMN formation, 60 min
[4] = Table A, human recombinant NAMPT, NMN formation, 60 min, read-out: EC50 Human
[5] = Table B, SH-SY5Y cells, cellular NAD levels, doxorubicin, 40 hours
[6] = Table B, SH-SY5Y cells, cellular NAD levels, doxorubicin, 40 hours, read-out: EC50

human NAMPT, sequence (P43490 whole entry): as above

SMILES	AC1.4 Human [1, 3]	EC50 [1, 4]	AC0.3 [2, 5]	EC50 [2, 6]	EC50 [1]	EC50 [2]
CC(C)(O)CN1CCN(C(=O)[C@H]2C[C@@]3(C[C@H](NC(=O)NCc4ccc(Cl)cc4)C3)C2)CC1 (single isomer, unassigned) [Compound 187]	–	–	–	–	0.6 µM	0.2 µM
COc1ccc(CNC(=O)NC2CC3(C2)CC(NC(=O)OC(C)(C)C)C3)cc1 (stereo not drawn) [Compound 7, tert-butyl (6-(3-(4-methoxybenzyl)ureido)spiro[3.3]heptan-2-yl)carbamate]	5.1 µM	26.3 µM	2.4 µM	4.7 µM	–	–
O=C(NCCCCC1CCN(C(=O)c2ccccc2)CC1)NCc1ccc(Cl)cc1 [Compound 16, 1-(4-(1-benzoylpiperidin-4-yl)butyl)-3-(4-chlorobenzyl)urea]	0.1 µM	–	0.1 µM	–	0.3 µM	0.1 µM
NC(=O)c1ccc(CNC(=O)NCCCCC2CCN(C(=O)c3ccccc3)CC2)cc1 [Compound 19, 4-((3-(4-(1-benzoylpiperidin-4-yl)butyl)ureido)methyl)benzamide]	0.1 µM	1.8 µM	1.6 µM	1.3 µM	–	–
O=C(NCCCCC1CCN(C(=O)c2ccccc2)CC1)NCc1ccc(CO)cc1 [Compound 22, 1-(4-(1-benzoylpiperidin-4-yl)butyl)-3-(4-(hydroxymethyl)benzyl)urea]	0.1 µM	1.1 µM	0.4 µM	0.1 µM	–	–
O=C(NCCCCC1CCN(C(=O)c2ccccc2)CC1)NCc1cnco1 [Compound 23, 1-(4-(1-benzoylpiperidin-4-yl)butyl)-3-(oxazol-5-ylmethyl)urea]	0.1 µM	1.4 µM	0.3 µM	0.3 µM	–	–
CC(C)(C)OC(=O)N1CCC2(CC1)CC2CNC(=O)NCc1ccc(Cl)cc1 (stereo not drawn) [Compound 27, tert-butyl 1-((3-(4-chlorobenzyl)ureido)methyl)-6-azaspiro[2.5]octane-6-carboxylate]	–	–	–	–	21.5 µM	5.8 µM
CC(C)(C)OC(=O)N1CCC2(CC1)CC2CNC(=O)NCc1ccc(C(N)=O)cc1 (stereo not drawn) [Compound 33, tert-butyl 1-((3-(4-carbamoylbenzyl)ureido)methyl)-6-azaspiro[2.5]octane-6-carboxylate]	–	19.8 µM	–	8.4 µM	–	–
COc1ccc(CNC(=O)NC2CC3(C2)CC(C(=O)N2CCc4ccccc42)C3)cc1 (stereo not drawn) [Compound 74, 1-(6-(indoline-1-carbonyl)spiro[3.3]heptan-2-yl)-3-(4-methoxybenzyl)urea]	0.8 µM	13.3 µM	0.3 µM	0.5 µM	–	–
O=C(NCc1ccc(Cl)cc1)NC1CC2(CC(Cc3ncccn3)C2)C1 (stereo not drawn) [Compound 340, 1-(4-chlorobenzyl)-3-(6-(pyrimidin-2-ylmethyl)spiro[3.3]heptan-2-yl)urea]	3.7 µM	–	–	–	5.6 µM	–
O=C(NCc1ccc(Cl)cc1)NC1CC2(C1)CC(Oc1ccncc1)C2 (stereo not drawn) [Compound 341, 1-(4-chlorobenzyl)-3-(6-(pyridin-4-yloxy)spiro[3.3]heptan-2-yl)urea]	3.9 µM	2 µM	–	–	–	–
CS(=O)(=O)C1CC2(CC(NC(=O)NCc3ccc(Cl)cc3)C2)C1 (stereo not drawn) [Compound 342, 1-(4-chlorobenzyl)-3-(6-(methylsulfonyl)spiro[3.3]heptan-2-yl)urea]	33.1 µM	56.1 µM	–	–	–	–
O=C(NCc1ccc(Cl)cc1)NC1CC2(C1)CC(Oc1cccnc1)C2 (stereo not drawn) [Compound 343, 1-(4-chlorobenzyl)-3-(6-(pyridin-3-yloxy)spiro[3.3]heptan-2-yl)urea]	3.0 µM	–	–	–	5.6 µM	–
O=C(NCc1ccc(Cl)cc1)NC1CC2(CC(Cc3cccnc3)C2)C1 (stereo not drawn) [Compound 345, 1-(4-chlorobenzyl)-3-(6-(pyridin-3-ylmethyl)spiro[3.3]heptan-2-yl)urea]	1.6 µM	0.6 µM	–	–	–	–
O=C(NCc1ccc(Cl)cc1)NC1CC2(C1)CC(OCc1ccncc1)C2 (stereo not drawn) [Compound 348, 1-(4-chlorobenzyl)-3-(6-(pyridin-4-ylmethoxy)spiro[3.3]heptan-2-yl)urea]	5.0 µM	5.9 µM	–	–	–	–
COc1ccc(CNC(=O)NC2CC3(C2)CC(OCc2ccncc2)C3)cc1 (stereo not drawn) [Compound 349, 1-(4-methoxybenzyl)-3-(6-(pyridin-4-ylmethoxy)spiro[3.3]heptan-2-yl)urea]	6.9 µM	40.3 µM	–	–	–	–
O=C(NCc1ccc(Cl)cc1)NC1CC2(C1)CC(OCc1cccnc1)C2 (stereo not drawn) [Compound 350, 1-(4-chlorobenzyl)-3-(6-(pyridin-3-ylmethoxy)spiro[3.3]heptan-2-yl)urea]	1.7 µM	6.1 µM	–	–	–	–
O=C(NCc1ccc(Cl)cc1)N[C@H]1C[C@]2(CCN(C(=O)N3CCC(N4CCCCC4)CC3)C2)C1 [Compound 354, 1-((2r,4s)-6-([1,4′-bipiperidine]-1′-carbonyl)-6-azaspiro[3.4]octan-2-yl)-3-(4-chlorobenzyl)urea]	4.2 µM	–	–	–	–	–

Second part, led by results:

AC1.4 Human [1, 3]	EC50 [1, 4]	AC0.3 [2, 5]	EC50 [2, 6]	SMILES	EC50 [1]	EC50 [2]
1.4 µM	39.8 µM	5.8 µM	5.8 µM	COc1ccc(CNC(=O)NC2CC3(C2)CC(C(=O)N(C)C2CCOC2)C3)cc1 (stereo in doubt) [Compound 79, (R)-6-(3-(4-methoxybenzyl)ureido)-N-methyl-N-(tetrahydrofuran-3-yl)spiro[3.3]heptane-2-carboxamide]	–	–
2.7 µM	35.3 µM	>20.1 µM	≥ 20.1 µM	NC(=O)c1ccc(CNC(=O)NC2CC3(C2)CC(NC(=O)c2ccccc2)C3)cc1 (stereo not drawn) [Compound 14, N-(6-(3-(4-carbamoylbenzyl)ureido)spiro[3.3]heptan-2-yl)benzamide]	–	–
0.2 µM	4.7 µM	0.4 µM	13.9 µM	COc1ccc(CNC(=O)NCCCCC2CCN(C(=O)c3ccccc3)CC2)cc1 [Compound 20, 1-(4-(1-benzoylpiperidin-4-yl)butyl)-3-(4-methoxybenzyl)urea]	–	–
–	26.7 µM	–	2.2 µM	CC(C)(C)OC(=O)N1CCC2(CC1)CC2CNC(=O)NCc1ccc(CO)cc1 (stereo not drawn) [Compound 29, tert-butyl 1-((3-(4-(hydroxymethyl)benzyl)ureido)methyl)-6-azaspiro[2.5]octane-6-carboxylate]	–	–
0.1 µM	1.5 µM	0.3 µM	0.9 µM	COc1ccc(CNC(=O)NC2CC3(C2)CC(C(=O)N2CCCc4ccccc42)C3)cc1 (stereo not drawn) [Compound 71, 1-(4-methoxybenzyl)-3-(6-(1,2,3,4-tetrahydroquinoline-1-carbonyl)spiro[3.3]heptan-2-yl)urea]	–	–
1.2 µM	7.7 µM	0.8 µM	0.8 µM	COc1ccc(CNC(=O)NC2CC3(C2)CC(C(=O)N2Cc4ccccc4C2)C3)cc1 (stereo not drawn) [Compound 73, 1-(6-(isoindoline-2-carbonyl)spiro[3.3]heptan-2-yl)-3-(4-methoxybenzyl)urea]	–	–
4.6 µM	6.5 µM	–	–	O=C(NCc1ccc(Cl)cc1)NC1CC2(CC(Cn3cncn3)C2)C1 (stereo not drawn) [Compound 339, 1-(6-((1H-1,2,4-triazol-1-yl)methyl)spiro[3.3]heptan-2-yl)-3-(4-chlorobenzyl)urea]	–	–
3.1 µM	34.9 µM	–	–	COc1ccc(CNC(=O)NC2CC3(C2)CC(Oc2cccnc2)C3)cc1 (stereo not drawn) [Compound 344, 1-(4-methoxybenzyl)-3-(6-(pyridin-3-yloxy)spiro[3.3]heptan-2-yl)urea]	–	–
2.2 µM	2.4 µM	–	–	Cc1ccc(CC2CC3(C2)CC(NC(=O)NCc2ccc(Cl)cc2)C3)cn1 (stereo not drawn) [Compound 347, 1-(4-chlorobenzyl)-3-(6-((6-methylpyridin-3-yl)methyl)spiro[3.3]heptan-2-yl)urea]	–	–
4.0 µM	38.7 µM	–	–	COc1ccc(CNC(=O)NC2CC3(C2)CC(OCc2cccnc2)C3)cc1 (stereo not drawn) [Compound 351, 1-(4-methoxybenzyl)-3-(6-(pyridin-3-ylmethoxy)spiro[3.3]heptan-2-yl)urea]	–	–
6.0 µM	8 µM	–	–	O=C(NCc1ccc(Cl)cc1)NC1CC2(CC(CS(=O)(=O)c3ccccc3)C2)C1 (stereo not drawn) [Compound 352, 1-(4-chlorobenzyl)-3-(6-((phenylsulfonyl)methyl)spiro[3.3]heptan-2-yl)urea]	–	–
5.3 µM	16.9 µM	–	–	O=C(NCc1ccc(Cl)cc1)NC1CC2(CC(CS(=O)(=O)c3cccnc3)C2)C1 (stereo not drawn) [Compound 353, 1-(4-chlorobenzyl)-3-(6-((pyridin-3-ylsulfonyl)methyl)spiro[3.3]heptan-2-yl)urea]	–	–
